{
  "source": "patent US20230181543A1",
  "about": "“TREATMENT OF CARM1-OVEREXPRESSING AND/OR ARID1A MUTANT CANCERS WITH IRE-1/XBP-1 INHIBITORS” (The Wistar Institute of Anatomy and Biology, priority 2020, published 2023)",
  "key": {"[1]": {"test_system": "XBP-1", "details": "B-I09 20 μM, 48 h (FIG. 3A)", "source_text": "(FIG. 3B) Dose response curve of B-I09 in wild-type and CARM1 knockout A1847 cells. (FIG. 3C) The expression of CARM1 in different HGSOC cell lines. (FIG. 3D) The IC50 of B-I09 in CARM1-low and high HGSOC cells.\nNext, the inventors investigated whether the activated IRE-1-XBP-1 pathway is required for the survival of CARM1-high parental cells. […] To investigate whether the IRE-1-XBP-1 inhibition suppresses CARM1-high cells through inducing cell death, western blotting of apoptotic markers was performed. […] Therefore, to investigate whether lipid biosynthesis affects the selectivity of CARM1-high cells to inhibit the XBP-1 pathway, cells are treated with B-I09 to inhibit the XBP-1 pathway and rescued with control BSA or oleic acid (OA) (FIG. 4B), which is the upstream product for lipid biosynthesis (Yao et al., 2017)."}, "[2]": {"test_system": "A1847 cells", "test": "Dose response of B-I09 in wild-type and CARM1 knockout A1847 cells", "format": "cell-based", "details": "wild-type vs CARM1 knockout A1847 cells (FIG. 3B)"}, "[3]": {"test_system": "A1847 cells with or without CARM1 knockout", "test": "Western blotting of apoptotic markers (cleaved PARP, cleaved lamin A)", "format": "cell-based", "details": "CARM1-high parental vs CARM1 knockout cells, B-I09 treatment", "source_text": "(§1) FIGS. 4A-C. […] (FIG. 4A) Western blotting of apoptotic markers in A1847 cells with or without CARM1 knockout treated with or without B-I09. (FIGS. 4B-C) Schematics (FIG. 4B) and dose response curves (FIG. 4C) of A1847 cells with or without CARM1 knockout treated with B-I09 and rescued with BSA or oleic acid (OA).\nFIGS. 15A-F. IRE-1a-XBP-1 pathway is required for CARM1-expressing OvCa. (FIG. 15A) Colony formation assays of wildtype and CARM1 knockout A 1847 and PEO4 cells treated with IRE-1α inhibitor B-I09 or 4μ8c. […] (FIG. 15C) Western blotting of apoptotic markers cleaved PARP and cleaved Lamin A and loading control β-actin. […] (FIG. 15D) The CARM1 levels in a panel of High Grade Serous Ovarian Cancer (HGSOC) cell lines were examined by western blotting. CARM1 is highly expressed in PEO4, OSAHO and A1847 cell lines. (FIG. 15E) Survival curves of colony formation assays of the panel of HGSOC cell lines treated with B-I09. (FIG. 15F) Comparison of IC50 of CARM1-high and CARM1-low HGSOC cell lines under treatment of B-I09."}, "[4]": {"test_system": "ARID1A mutant tumor", "test": "ARID1A mutant tumor formation under B-I09", "format": "in vivo", "details": "FIG. 39, 40"}, "[5]": {"test_system": "ARID1A-mutant OCCC PDX", "test": "ARID1A-mutant OCCC PDX mice treated with B-I09", "format": "in vivo", "details": "ARID1A-mutant OCCC PDX mice (FIG. 45)"}, "[6]": {"test": "B-I09 treatment with CD8 depletion", "format": "in vivo", "details": "FIG. 44"}, "[7]": {"test_system": "CARM1-high tumors", "test": "Orthotopic CARM1-high and CARM1-low PDX and A1847 xenograft mouse models", "format": "in vivo, mice", "details": "CARM1-high vs CARM1-low PDX; wild-type vs CARM1 knockout A1847 xenograft", "source_text": "(FIG. 18A) Hematoxylin and eosin (HE) staining, and immunohistochemical staining with anti-CARM1 antibody in CARM1-low and CARM1-high PDX. (FIG. 18B) Confirmation of CARM1 expression levels in CARM1-low and -high PDXs by western blotting. A1847 and OVCAR3 cell lysates were used as positive control for CARM1-high and CARM1-low expression, respectively. (FIGS. 18C-D) Schematic of experimental design for PDX mouse model was shown. Mice with indicated orthotopic CARM1-high and CARM1-low PDXs were randomized into two groups and treated with vehicle control or B-I09. Tumor weight was measured as a representation for tumor burden at the end of the treatment. (FIGS. 18E-F) Schematic of experimental design for orthotopic injection A1847 xenograft was shown. Mice with indicated orthotopic injection of wild-type or CARM1 knockout A1847 cells were randomized into two groups and treated with vehicle control or B-I09. Tumor weight was measured as a representation for tumor burden at the end of the treatment. (FIG. 18G) Kaplan-Meier survival curves for indicated xenograft groups. P value was calculated by log rank test. (FIG. 18H) Immunohistochemistry for apoptotic marker cleaved caspase 3 and proliferation marker Ki67, histological scores (H-score) were calculated for three separate fields from five tumors from five individual mice from each of the indicated groups."}, "[8]": {"test_system": "UPK10 cells", "test": "Orthotopic UPK10 xenograft, B-I09 with PD-1 immune therapy", "format": "in vivo, B6 Mice", "details": "B-I09 50 mg per kg, 5 weekdays per week i.p., with PD-1 10 mg per kg twice per week", "procedure": "(FIG. 19A) Western blotting of CARM1 and loading control […]-actin in UPK10, […] and OVCAR3 cells. (FIG. 19B) Schematic of experimental design for orthotopic injection UPK10 xenograft was shown. B6 Mice with indicated orthotopic injection of UPK10 cells were randomized into four different treatment groups and treated with control vehicle, B-[…] (50 mg per kg, 5 weekdays per week by i.p.), PD-1 (10 mg per kg, twice per week) or a combination. (FIG. 19C) Tumor weight was measured as a representation for tumor burden at the end of the treatment. coefficient of drug interaction (CDI) was calculated. (FIG. 19D) Tumor infiltrated lymphocytes (TILs) was analyzed by flow cytometry. The percentage of CD4^+ T cell, CD8^+ T cell, B cell in […] cell and macrophage were shown."}, "[9]": {"test_system": "hematological malignancies", "details": "cited from earlier work"}, "[10]": {"test_system": "Arid1a flox/flox;(Gt)Rosa26Pik3ca*H1047R OCCC tumors", "test": "Genetic OCCC mouse model (conditional inactivation of Arid1a, activation of Pik3ca)"}, "[11]": {"target": "EZH2 compared to EZH1 (Homo sapiens, UniProt Q15910)", "sequence (Q15910 whole entry)": "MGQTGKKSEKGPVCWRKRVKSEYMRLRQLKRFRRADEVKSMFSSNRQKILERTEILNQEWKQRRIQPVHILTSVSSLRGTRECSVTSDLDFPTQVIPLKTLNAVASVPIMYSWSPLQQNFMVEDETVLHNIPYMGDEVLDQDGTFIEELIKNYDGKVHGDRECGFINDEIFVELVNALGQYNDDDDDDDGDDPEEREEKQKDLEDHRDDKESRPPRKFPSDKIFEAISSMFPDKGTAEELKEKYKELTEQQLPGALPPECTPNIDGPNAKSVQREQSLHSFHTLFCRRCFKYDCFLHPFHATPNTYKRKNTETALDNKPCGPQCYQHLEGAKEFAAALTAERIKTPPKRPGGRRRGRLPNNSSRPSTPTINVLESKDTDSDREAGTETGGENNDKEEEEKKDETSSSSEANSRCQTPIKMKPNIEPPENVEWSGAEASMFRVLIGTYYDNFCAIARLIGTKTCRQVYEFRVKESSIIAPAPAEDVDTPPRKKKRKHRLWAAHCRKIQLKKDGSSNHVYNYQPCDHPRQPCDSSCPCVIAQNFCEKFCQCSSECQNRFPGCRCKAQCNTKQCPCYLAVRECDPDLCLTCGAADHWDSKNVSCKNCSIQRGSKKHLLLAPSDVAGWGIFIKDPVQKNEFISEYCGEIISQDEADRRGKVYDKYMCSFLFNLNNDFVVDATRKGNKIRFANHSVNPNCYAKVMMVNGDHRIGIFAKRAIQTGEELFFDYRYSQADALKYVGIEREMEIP", "sequence (O75530 whole entry partner)": "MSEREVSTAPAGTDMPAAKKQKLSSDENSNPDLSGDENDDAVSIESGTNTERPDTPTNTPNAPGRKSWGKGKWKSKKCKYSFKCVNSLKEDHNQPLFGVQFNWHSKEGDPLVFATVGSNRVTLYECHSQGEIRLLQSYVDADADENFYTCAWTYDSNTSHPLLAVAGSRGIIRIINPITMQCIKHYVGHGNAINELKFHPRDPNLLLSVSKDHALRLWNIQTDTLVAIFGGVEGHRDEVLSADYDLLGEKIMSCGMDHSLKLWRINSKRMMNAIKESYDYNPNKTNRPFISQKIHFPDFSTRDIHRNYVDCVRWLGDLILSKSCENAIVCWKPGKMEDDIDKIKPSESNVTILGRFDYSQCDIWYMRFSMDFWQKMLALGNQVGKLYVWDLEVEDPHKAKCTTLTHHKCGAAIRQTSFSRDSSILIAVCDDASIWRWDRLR", "sequence (Q15022 whole entry partner)": "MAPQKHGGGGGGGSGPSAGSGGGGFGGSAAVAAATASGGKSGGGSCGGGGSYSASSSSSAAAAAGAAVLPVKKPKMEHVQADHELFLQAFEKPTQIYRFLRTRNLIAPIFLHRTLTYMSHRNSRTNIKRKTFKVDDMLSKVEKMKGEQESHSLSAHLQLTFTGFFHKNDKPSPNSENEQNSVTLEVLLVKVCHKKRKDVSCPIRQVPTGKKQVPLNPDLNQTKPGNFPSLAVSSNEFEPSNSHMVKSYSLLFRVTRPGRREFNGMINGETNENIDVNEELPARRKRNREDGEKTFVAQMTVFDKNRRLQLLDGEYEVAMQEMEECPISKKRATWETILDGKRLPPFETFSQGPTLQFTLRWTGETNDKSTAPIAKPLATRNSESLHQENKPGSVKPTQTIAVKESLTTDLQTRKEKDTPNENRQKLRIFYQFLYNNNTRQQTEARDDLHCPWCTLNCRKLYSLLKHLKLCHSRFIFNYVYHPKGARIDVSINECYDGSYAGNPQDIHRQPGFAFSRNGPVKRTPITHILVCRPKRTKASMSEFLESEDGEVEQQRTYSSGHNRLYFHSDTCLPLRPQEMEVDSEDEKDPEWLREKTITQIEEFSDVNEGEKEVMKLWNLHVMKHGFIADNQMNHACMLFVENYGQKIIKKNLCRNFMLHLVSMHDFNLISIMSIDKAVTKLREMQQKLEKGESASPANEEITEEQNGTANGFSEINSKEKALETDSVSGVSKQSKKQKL", "sequence (Q09028 whole entry partner)": "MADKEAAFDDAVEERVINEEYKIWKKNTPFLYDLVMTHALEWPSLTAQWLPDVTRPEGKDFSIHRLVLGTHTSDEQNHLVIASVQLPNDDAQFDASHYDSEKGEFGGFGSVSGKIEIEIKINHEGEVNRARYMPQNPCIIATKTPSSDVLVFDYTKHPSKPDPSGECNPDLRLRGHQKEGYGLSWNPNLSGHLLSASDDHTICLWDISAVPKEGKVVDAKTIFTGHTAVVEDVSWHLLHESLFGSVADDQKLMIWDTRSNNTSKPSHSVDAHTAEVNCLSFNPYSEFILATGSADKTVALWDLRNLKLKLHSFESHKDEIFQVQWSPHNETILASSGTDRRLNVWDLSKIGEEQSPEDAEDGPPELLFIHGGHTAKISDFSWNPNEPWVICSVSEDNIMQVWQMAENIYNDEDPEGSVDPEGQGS", "details": "cited from earlier work"}, "[12]": {"test_system": "RMG1 cells", "test": "Cisplatin and B-I09 combination in RMG1 wild-type and ARID1A knock-out cells", "format": "cell-based", "details": "RMG1 wild-type vs RMG1 ARID1A knock-out cells (FIG. 11); preliminary", "source_text": "FIG. 11. […] IC50 of cisplatin in RMG1 wild-type compared to RMG1 ARID1A knock-out cells in combination with B-I09. Data from 3 replicates.\nResistance to cisplatin has been associated with an increase in ER stress-mediated cellular survival mechanisms in ovarian cancer (Avril et al., 2017; Lei et al., 2015; Xu et al., 2015). […] The inventors hypothesize that ER stress inhibition is synergistic with platinum-based chemotherapy in ARID1A-mutated OCCCs. To test this hypothesis, the inventors will treat ARID1A wild-type, ARID1A CRISPR-Cas9 knock-out, and ARID/A-mutant or wild-type OCCC cells with increasing concentrations of cisplatin or carboplatin. ER stress response induction will be analyzed by western blot and RT-qPCR analyzing the expression of ER stress response proteins such as IRE-1, XBP-1, PERK, ATF6 and BiP. They expect that platinum-based therapy-induces enhanced ER stress responses in ARID1A mutant/knock-out cells. ER stress response induction may sensitize them to treatment combination of platinum-based therapies and B-I09. […] The inventors will expand this analysis into a panel of ARID1A wild-type (such as RMG1, OVCA429 and KK) and mutant (such as TOV21G, OVTOKO, and OVISE) OCCC cell lines to further establish the efficacy of combination treatment of platinum-based therapy and B-I09. […]"}, "[13]": {"test_system": "A1847 cells with or without CARM1 knockout", "test": "Oleic acid rescue of B-I09-treated cells", "format": "cell-based", "details": "cells treated with B-I09, rescued with BSA or oleic acid (FIG. 4C); preliminary", "source_text": "as §1"}},
  "note": "Entries after “also recorded” stand apart in the source; their conditions may differ.",
  "data": [
    {"molecule": "O=c1oc2c(C3OCCCO3)c(O)ccc2c2c1CNCC2", "note": "[B-I09]", "values": [
      {"measurement": "activation of XBP-1 / expression of active XBP-1s", "setting": "[1]", "value": "inhibits the activation of XBP-1; also recorded: decreasing the expression of active XBP-1s"},
      {"measurement": "sensitivity to B-I09, dose response curve", "setting": "[2]", "value": "wild-type cells are significantly more sensitive to B-I09 compared with knockout cells"},
      {"measurement": "induction of apoptosis (cleaved PARP, cleaved lamin A)", "setting": "[3]", "value": "specifically induces apoptosis in CARM1-high cells; also recorded: specifically induced apoptosis in wildtype CARM1-high cells; also recorded: selectively induced apoptosis in CARM1-high but not CARM1-low or CARM1 knockout HGSOC cells"},
      {"measurement": "ARID1A mutant tumor formation", "setting": "[4]", "value": "selectively suppresses ARID1A mutant tumor formation"},
      {"measurement": "tumor growth", "setting": "[5]", "value": "suppresses tumor growth"},
      {"measurement": "effect of CD8 depletion on B-I09 treatment", "setting": "[6]", "value": "CD8 depletion does not affect B-I09 treatment"},
      {"measurement": "sensitivity of tumors (tumor weight, survival) to B-I09", "setting": "[7]", "value": "CARM1-high tumors are sensitive to IRE-1α-XBP-1 inhibition"},
      {"measurement": "drug interaction on tumor weight (coefficient of drug interaction)", "setting": "[8]", "value": "synergizes with PD-1 immune therapy"},
      {"measurement": "efficacy in hematological malignancies", "setting": "[9]", "value": "has been effective in treating hematological malignancies"},
      {"measurement": "survival (Kaplan-Meier)", "setting": "[10]; 50 mg/Kg B-I09, tumor bearing mice", "value": "enhances mouse survival"},
      {"measurement": "tumor growth / progression (tumor weight)", "setting": "[10]; 50 mg/Kg B-I09 for 3 weeks (5 days on/2 off)", "value": "reduces OCCC tumor growth in vivo; also recorded: suppresses tumor progression"}
    ]},
    {"molecule": "Cc1cc(C)c(CNC(=O)c2cc(-c3ccc(CN4CCOCC4)cc3)cc3c2cnn3C2CCCC2)c(=O)[nH]1", "note": "[EPZ005687]", "values": [
      {"measurement": "selectivity for EZH2 over EZH1", "setting": "[11]", "value": 50, "unit": "fold"}
    ]},
    {"molecule": "N.N.[Cl][Pt][Cl]", "note": "[cisplatin]", "values": [
      {"measurement": "IC50 of cisplatin in combination with B-I09", "setting": "[12]", "value": "reduces the IC50 of cisplatin more effectively in RMG1 CRISPR/Cas9 KO cells compared to their wild-type parental control; also recorded: Loss of ARID1A promotes sensitivity to cisplatin and B-I09 combination"}
    ]},
    {"molecule": "CCCCCCCC/C=C\\CCCCCCCC(=O)O", "note": "[oleic acid]", "values": [
      {"measurement": "rescue from B-I09 inhibition of XBP-1", "setting": "[13]", "value": "can rescue A1847 wild-type cells from the inhibition of XBP-1 but has no effect on CARM1 knockout cells"}
    ]}
  ]
}
